Read-outs that look alike come from different tables or passages of the source.
Experiments:
[1] = test system: rat air pouch model of crystal-induced arthropathy (MSU); experiment: Rat air pouch model, Example 9 (Compound 4 in combination with colchicine); format: in vivo
Description: Sodium hydroxide (40 g, Fisher Scientific) was dissolved in de-ionized water (100 mL, dH2O) to provide a 10N solution. […] The resulting clear solution was cooled to 4-8° C., resulting in the formation of crystals, which were isolated by filtration, washed three times with de-ionized wa[…]) and dried at 37° C. The dried mono sodium urate crystals were sifted into an air-tight container for storage. […] Methylcellulose (0.4 g, Sigma) was dissolved in de-ionized water (100 mL) to provide a 0.4% solution used as vehicle. […] Test compounds were suspended in vehicle to provide the desired concentrations, and diluted accordingly. […] The animals were in apparent good health with no clinical signs of disease or distress. The rats were placed in quarantine with daily inspections, ear notched for identification purposes and shaved at the nape of the neck. The rats were anesthetized (isoflurane), and the nape of the neck was cleansed with 70% isopropanol (Butler Animal Health Supply) followed by povidone-iodine solution (Ricca Chemical Co.). Sterile air (30 mL, 0.2 μm, Millipore) was injected subcutaneously using a 23 G×11⁄2 inch needle fixed to a 30 mL syringe. The rats were returned to routine housing with no adverse reactions observed. The rats were anesthetized (isoflurane), and the nape of the neck was cleansed with 70% isopropanol (Butler Animal Health Supply) followed by povidone-iodine solution (Ricca Chemical Co.). Sterile air (15 mL, 0.11 μm, Millipore) was injected subcutaneously using a 23 G×11⁄2 inch needle fixed to a 20 mL syringe. The rats were returned to routine housing with no adverse reactions observed. The rats were weighed and sorted into treatment groups based on average body weight. As appropriate, the rats were dosed orally with test compound or vehicle (saline alone). […] Thirty minutes after SC injection or two hours after PO dosing, MSU (15 mL) was injected into the air pouch using an 18 G×2 inch needle fitted to a 20 mL syringe. Control group was injected with 15 mL sterile saline (vehicle). The injection sites were closed (collodion, Macron) and the rats returned to their cages with no adverse effects observed. Four hours after MSU/saline injection, the rats were anesthetized and heparinized saline (5 mL, 10 U/mL) was injected into the air pouch. […] An aliquot of the exudate was transferred to green Eppendorf tubes for total white blood cell (WBC) measurement. After allowing the MSU crystals to settle out for ten minutes, an aliquot of the exudate was transferred to heparinized microtainer tubes (Becton Dickinson) for differential white blood cell counts. The remainder of the exudate was centrifuged and an aliquot of the supernatants was dispensed to labeled clear Eppendorf tubes and stored at -80° C. The rats were exsanguinated into pre-chilled serum separator tubes, processed to serum, and 0.5 mL aliquot was stored at -80° C. in labeled Eppendorf tubes. […] [table]

[2] = in vivo; cited from earlier work
[3] = cited from earlier work
neutrophils = experiment: Cell migration (chemotaxis) assay, neutrophil counts; format: cell-based; settings: 10 μM; MSU-conditioned media; FIG. 1A
PBMCs = experiment: Cell migration (chemotaxis) assay, PBMC counts; format: cell-based; settings: 10 μM; MSU crystal conditioned media; FIG. 1B
Description: Primary blood monocytes (PMBC) were obtained from the lymphocyte layer (buffy coat) of peripheral blood from normal donors. Each leukopack (Interstate Blood Bank) was diluted with an equal volume of PBS, and 35 mL of blood preparation was over-laid onto 15 mL of Ficoll-Paque™ PLUS (GE Healthcare Bio-Sciences). Tubes were centrifuged at 700×g without breaks for 30 minutes at room temperature. The buffy coat interface was removed, added to PBS (40 mL), and centrifuged at 300×g. Any remaining erythrocytes in the cell pellet were lysed by incubating cells in red blood cell lysis buffer (10 mL, R&D Systems) for 10 minutes at room temperature. Following lysis, PBS (40 mL) was added and the cells centrifuged for 5 minutes at 200×g. The pellet was washed once with PBS and re-suspended in complete RPMI and seeded onto a BD Falcon™ 100 mm tissue culture dish (Cat. No. 353003). After one hour, the media was aspirated and the adherent cells (predominantly monocytes) were harvested using a cell scraper and used in chemotaxis assays. Chemotaxis was assayed in 48-well plates with BD Falcon FluoroBlok Multiwell inserts with 3 μm pores (Cat. No. 351161 or 351162) coated with hFN. […] Fluorescence emitted from cells that had migrated to the bottom surface of the insert was measured at various time points. Cells labeled with Calcein AM were read at 485/530 nm (Ex/Em) wavelength. […]

[4] = rat; cited from earlier work
[5] = dog; cited from earlier work
[6] = cited from earlier work; remark: listed apart in the source
CXCR-2 = target: T1, CXCR-2 (Homo sapiens, UniProt P25025); settings: in vitro; cited from earlier work
T1 sequence (P25025 1-360): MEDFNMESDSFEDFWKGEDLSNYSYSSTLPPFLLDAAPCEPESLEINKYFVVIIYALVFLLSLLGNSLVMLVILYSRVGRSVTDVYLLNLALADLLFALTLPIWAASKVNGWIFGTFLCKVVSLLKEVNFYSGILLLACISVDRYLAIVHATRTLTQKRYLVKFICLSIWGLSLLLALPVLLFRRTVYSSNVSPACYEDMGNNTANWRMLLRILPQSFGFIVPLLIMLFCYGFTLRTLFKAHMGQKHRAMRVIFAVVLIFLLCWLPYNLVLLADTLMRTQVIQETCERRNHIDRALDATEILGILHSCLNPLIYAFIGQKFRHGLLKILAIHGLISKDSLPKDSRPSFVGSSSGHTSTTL

[7] = 10 umol/kg PO + Colchicine 0.3 mpk SC, Group 10

## COc1cc2c(c(OC)c1OC)-c1ccc(OC)c(=O)cc1[C@@H](NC(C)=O)CC2 [Colchicine, COLCHICINE, reference compound]
[1]; 0.3 mpk SC, Group 3
  Avg Exudate Vol: 12.4 mL
  Avg Tot WBC: 120 ×10^6
  Neutrophils: 101.9 ×10^6
[1]; 0.5 mpk SC, Group 4
  Avg Exudate Vol: 8.8 mL
  Avg Tot WBC: 58 ×10^6
  Neutrophils: 42.7 ×10^6
[1]; 1.0 mpk SC, Group 5
  Avg Exudate Vol: 5.6 mL
  Avg Tot WBC: 16 ×10^6
  Neutrophils: 9.8 ×10^6
[2]
  eliminated unchanged in the urine: 10-20%
[3]; lower dose regimen: 1.2 mg at onset of acute gout attack, then 0.6 mg after one hour
  gastrointestinal side effects: 24%
[3]; standard dose regimen: 1.2 mg at onset of acute gout attack, then 0.6 mg every hour for 6 hours
  gastrointestinal side effects: 73%
[3]; standard dose regimen
  Severe diarrhea, % of patients: 19%
  vomiting, % of patients: 15%

## CC[C@@H](Nc1c(Nc2cccc(C(=O)N(C)C)c2O)c(=O)c1=O)c1ccc(C)o1 [Compound 2, (R)-2-hydroxy-N,N-dimethyl-3-((2-((1-(5-methylfuran-2-yl)propyl)amino)-3,4-dioxocyclobut-1-en-1-yl)amino)benzamide]
neutrophils
  inhibition of migration in neutrophils: significant inhibition of migration
PBMCs
  inhibition in migration in PBMCs: significant inhibition in migration

## C[C@@H](Oc1cc(NS(=O)(=O)N2CCC2)nc(SCc2cccc(F)c2F)n1)[C@@H](O)CO [Compound 3, N-(2-((2,3-difluorobenzyl)thio)-6-(((2R,3S)-3,4-dihydroxybutan-2-yl)oxy)pyrimidin-4-yl)azetidine-1-sulfonamide]
[4]
  bioavailability: 49%
[5]
  half-life: long
[6]
  solubility properties: good
CXCR-2
  potency: high

## CC1CN(S(=O)(=O)Nc2cc(O[C@H](C)[C@@H](O)CO)nc(SCc3ccc(F)cc3)n2)C1 [Compound 4, N-(6-(((2R,3S)-3,4-dihydroxybutan-2-yl)oxy)-2-((4-fluorobenzyl)thio)pyrimidin-4-yl)-3-methylazetidine-1-sulfonamide]
[1]; [7]
  Avg Exudate Vol: 7.8 mL
  Avg Tot WBC: 20 ×10^6
  Neutrophils: 6.4 ×10^6
[1]; 10.0 umol/kg PO, Group 6
  Avg Exudate Vol: 12.5 mL
  Avg Tot WBC: 160 ×10^6
  Neutrophils: 102.1 ×10^6
[1]; 30.0 umol/kg PO, Group 7
  Avg Exudate Vol: 6.7 mL
  Avg Tot WBC: 28.7 ×10^6
  Neutrophils: 14 ×10^6
[1]; 100 umol/kg PO, Group 8
  Avg Exudate Vol: 6 mL
  Avg Tot WBC: 12 ×10^6
  Neutrophils: 3.8 ×10^6
[1]; 300 umol/kg PO, Group 9
  Avg Exudate Vol: 5.2 mL
  Avg Tot WBC: 8.1 ×10^6
  Neutrophils: 4.3 ×10^6

From patent publication US10772886B2, “CXCR-2 inhibitors for treating crystal arthropathy disorders” (ARDEA BIOSCIENCES, INC., priority 2016, dated 2020)
